In patent US20250360137A1, “ENHANCEMENT OF THE EFFICACY OF SEROTONERGIC PSYCHEDELIC DRUGS IN THE TREATMENT OR PREVENTION OF CERTAIN NEUROPSYCHIATRIC DISORDERS THROUGH INHIBITION OF TYPE-9 PHOSPHODIESTERASES” (Freedom Biosciences, Inc., priority 2022, published 2025):

System: C57B6/J mice
Experiment: Psilocybin induced head twitch response (HTR) in mice, automated system with implanted ear magnets
Format: in vivo
Protocol: Illustrated herein is a dose-dependent decrease in hallucinogenic response (head-twitch response, HTR) to psilocybin administration by adding a PDE9 inhibitor.
In this experiment, it was determined whether the number of head twitches in 10 minutes in response to psilocybin administration in 7-10 week old C57B6/J mice (equal numbers of male and female) were reduced by PF-4447943, a prototypical PDE9 inhibitor. The experiment began with the mice receiving a 20-minute pretreatment with PF-4447943 or its associated vehicle (5% Cremophor, 5% dimethyl sulfoxide (DMSO), and 90% saline) followed by the test dose of psilocybin. Head twitch was assessed for 10 minutes in an automated system using implanted magnets in the mouse's ears. At least one week elapsed prior to reuse, and mice were used maximally twice. […] For instance, average HTR over 10 min in mice receiving 3 mg/kg psilocybin and no PF-4447943 was about 30, while average HTR over 10 min in mice receiving 3 mg/kg psilocybin plus 3 mg/kg PF-4447943 was about 20.
In another experiment, a psilocybin dose-response curve was generated in the presence and absence of a fixed dose of pre-administered PF-4447943. FIG. 2 depicts the results of HTR in mice receiving administration of a fixed dose of PF-4447943 (3 mg/kg IP) and various doses of psilocybin (0, 0.3, 1, 3, 10 mg/kg IP), in comparison with administration of psilocybin plus the PF-4447943 vehicle alone as a control.

| Compound | HTR after psilocybin following pretreatment with PF-4447943 compared to pretreatment with the PF-4447943 vehicle (20-minute pretreatment, head twitch assessed for 10 minutes, FIG. 1) | average HTR over 10 min (mice receiving 3 mg/kg psilocybin plus 3 mg/kg PF-4447943 (20-minute pretreatment), FIG. 1) | reduction of HTR (pretreatment with 3 mg/kg PF-4447943 IP, across all doses of psilocybin (0, 0.3, 1, 3, 10 mg/kg IP) vs psilocybin plus vehicle, FIG. 2) | average HTR over 10 min (mice receiving 3 mg/kg psilocybin and no PF-4447943 (vehicle pretreatment), FIG. 1) |
| --- | --- | --- | --- | --- |
| C[C@@H]1CN(Cc2ncccn2)C[C@H]1c1nc2c(cnn2C2CCOCC2)c(=O)[nH]1 [PF-4447943, 6-[(3S,4S)-4-methyl-1-(pyrimidin-2-ylmethyl)pyrrolidin-3-yl]-1-(tetrahydro-2H-pyran-4-yl)-1,5-dihydro-4H-pyrazolo[3,4-d]pyrimidin-4-one] | reduced | about 20 | about 40% |  |
| CN(C)CCc1c[nH]c2cccc(OP(=O)(O)O)c12 [psilocybin, [3-[2-(dimethylamino)ethyl]-1H-indol-4-yl]dihydrogen phosphate] |  |  |  | about 30 |
